Assay results as given in article PMC5218480 (PLoS ONE, 2017).

System: MV-4-11 cells
Assay: Gene expression microarray analysis (Affymetrix PrimeView) and GSEA
Format: cell-based, human
Set-up: RFU PODN (11730768_x_at) / Fold change /veh PODN (11730768_x_at) / RFU LINC00158 (11744669_a_at) / Fold change /veh LINC00158 (11744669_a_at) / RFU DUSP10 (11751237_a_at) / Fold change /veh DUSP10 (11751237_a_at) / RFU ID3 (11757404_x_at) / Fold change /veh ID3 (11757404_x_at) / RFU PLEKHG5 (11737974_s_at) / Fold change /veh PLEKHG5 (11737974_s_at) / RFU LRRC4B (11730491_at) / Fold change /veh LRRC4B (11730491_at) / RFU GIMAP4 (11747438_a_at) / Fold change /veh GIMAP4 (11747438_a_at) / RFU KRT8 (11758183_x_at) / Fold change /veh KRT8 (11758183_x_at) / RFU CNN1 (11734310_a_at) / Fold change /veh CNN1 (11734310_a_at) / RFU VPS37D (11726825_at) / Fold change /veh VPS37D (11726825_at) / RFU C10orf10 (11716522_x_at) / Fold change /veh C10orf10 (11716522_x_at) / RFU KIR2DL2 /// KIR2DL4 /// KIR2DL5A /// KIR2DL5B /// KIR2DS1 /// KIR2DS2 /// KIR2DS3 /// KIR2DS4 /// KIR3DL3 /// KIR3DL3 /// KIR3DS1 (11738374_at) / Fold change /veh KIR2DL2 /// KIR2DL4 /// KIR2DL5A /// KIR2DL5B /// KIR2DS1 /// KIR2DS2 /// KIR2DS3 /// KIR2DS4 /// KIR3DL3 /// KIR3DL3 /// KIR3DS1 (11738374_at) / RFU C1QL1 (11718748_at) / Fold change /veh C1QL1 (11718748_at) / RFU TMPRSS4 (11747572_a_at) / Fold change /veh TMPRSS4 (11747572_a_at) / RFU HAMP (11756126_x_at) / Fold change /veh HAMP (11756126_x_at) / RFU RNFT2 (11725882_a_at) / Fold change /veh RNFT2 (11725882_a_at) / RFU NR4A2 (11747474_a_at) / Fold change /veh NR4A2 (11747474_a_at) / RFU ABCC12 (11746883_a_at) / Fold change /veh ABCC12 (11746883_a_at) / RFU TMEM136 (11760407_x_at) / Fold change /veh TMEM136 (11760407_x_at) / RFU CLDN22 /// WWC2 (11732394_at) / Fold change /veh CLDN22 /// WWC2 (11732394_at) / RFU HLA-DPB1 (11760878_x_at) / Fold change /veh HLA-DPB1 (11760878_x_at) / RFU SPINT1 (11716480_a_at) / Fold change /veh SPINT1 (11716480_a_at) / RFU GAP43 (11754022_s_at) / Fold change /veh GAP43 (11754022_s_at) / RFU A4GNT (11735810_at) / Fold change /veh A4GNT (11735810_at) / RFU PRB3 (11715151_x_at) / Fold change /veh PRB3 (11715151_x_at) / RFU TUBB4B (11761932_at) / Fold change /veh TUBB4B (11761932_at) / RFU CAPN14 (11732068_a_at) / Fold change /veh CAPN14 (11732068_a_at) / RFU TMCC2 (11721928_a_at) / Fold change /veh TMCC2 (11721928_a_at) / RFU IRGQ (11745062_a_at) / Fold change /veh IRGQ (11745062_a_at) / RFU FAM174B (11720279_a_at) / Fold change /veh FAM174B (11720279_a_at) / RFU TMPRSS4 (11748680_a_at) / Fold change /veh TMPRSS4 (11748680_a_at) / RFU FAM212B (11763350_a_at) / Fold change /veh FAM212B (11763350_a_at) / RFU PLEKHG5 (11743358_a_at) / Fold change /veh PLEKHG5 (11743358_a_at) / RFU ZSCAN30 (11745921_a_at) / Fold change /veh ZSCAN30 (11745921_a_at) / RFU CMKLR1 (11741424_a_at) / Fold change /veh CMKLR1 (11741424_a_at) / RFU LOC101060620 /// MAPK8IP1 (11723275_at) / Fold change /veh LOC101060620 /// MAPK8IP1 (11723275_at) / RFU SPTSSB (11747773_x_at) / Fold change /veh SPTSSB (11747773_x_at) / RFU PRSS12 (11739890_at) / Fold change /veh PRSS12 (11739890_at) / RFU BIN1 (11741810_x_at) / Fold change /veh BIN1 (11741810_x_at) / RFU WNT11 (11732464_a_at) / Fold change /veh WNT11 (11732464_a_at) / RFU C10orf10 (11716521_a_at) / Fold change /veh C10orf10 (11716521_a_at) / RFU C5orf56 (11738089_at) / Fold change /veh C5orf56 (11738089_at) / RFU CYB561 (11721691_x_at) / Fold change /veh CYB561 (11721691_x_at) / RFU ANKRD19P (11752326_a_at) / Fold change /veh ANKRD19P (11752326_a_at) / RFU OR2T12 /// OR2T33 /// OR2T8 (11738714_s_at) / Fold change /veh OR2T12 /// OR2T33 /// OR2T8 (11738714_s_at) / RFU VCAN (11748164_a_at) / Fold change /veh VCAN (11748164_a_at) / RFU JSRP1 (11732532_at) / Fold change /veh JSRP1 (11732532_at) / RFU KRTAP10-11 (11738290_x_at) / Fold change /veh KRTAP10-11 (11738290_x_at) / RFU MYO3A (11730013_a_at) / Fold change /veh MYO3A (11730013_a_at) / RFU EBF3 (11725865_a_at) / Fold change /veh EBF3 (11725865_a_at) / RFU CAMK2N1 (11719241_x_at) / Fold change /veh CAMK2N1 (11719241_x_at) / RFU C5orf56 (11738088_a_at) / Fold change /veh C5orf56 (11738088_a_at) / RFU OLFML3 (11715873_a_at) / Fold change /veh OLFML3 (11715873_a_at) / RFU LOC100653217 /// NTM (11731650_a_at) / Fold change /veh LOC100653217 /// NTM (11731650_a_at) / RFU MAPK11 (11762145_a_at) / Fold change /veh MAPK11 (11762145_a_at) / RFU FIZ1 (11724087_x_at) / Fold change /veh FIZ1 (11724087_x_at) / RFU OASL (11726364_x_at) / Fold change /veh OASL (11726364_x_at) / RFU SOX15 (11748057_x_at) / Fold change /veh SOX15 (11748057_x_at) / RFU CD79A (11719716_a_at) / Fold change /veh CD79A (11719716_a_at) / RFU HIST1H1D (11736915_at) / Fold change /veh HIST1H1D (11736915_at) / RFU CASKIN2 (11723855_a_at) / Fold change /veh CASKIN2 (11723855_a_at) / RFU LOC730098 (11760151_x_at) / Fold change /veh LOC730098 (11760151_x_at) / RFU OR4N2 (11742367_at) / Fold change /veh OR4N2 (11742367_at) / RFU PRRT2 (11749266_a_at) / Fold change /veh PRRT2 (11749266_a_at) / RFU SNX32 (11753110_a_at) / Fold change /veh SNX32 (11753110_a_at) / RFU CDHR5 (11726645_a_at) / Fold change /veh CDHR5 (11726645_a_at) / RFU RCAN1 (11760418_a_at) / Fold change /veh RCAN1 (11760418_a_at) / RFU FAM167A (11723789_a_at) / Fold change /veh FAM167A (11723789_a_at) / RFU FAM26E (11764081_at) / Fold change /veh FAM26E (11764081_at) / RFU ISYNA1 (11749810_s_at) / Fold change /veh ISYNA1 (11749810_s_at) / RFU ACY1 (11761880_at) / Fold change /veh ACY1 (11761880_at) / RFU 11764098_at / Fold change /veh 11764098_at / RFU SAMD14 (11745864_x_at) / Fold change /veh SAMD14 (11745864_x_at) / RFU NPB (11741838_a_at) / Fold change /veh NPB (11741838_a_at) / RFU TMPRSS6 (11731388_a_at) / Fold change /veh TMPRSS6 (11731388_a_at) / RFU KRTAP10-2 (11738614_at) / Fold change /veh KRTAP10-2 (11738614_at) / RFU ARHGAP8 /// PRR5-ARHGAP8 (11727945_x_at) / Fold change /veh ARHGAP8 /// PRR5-ARHGAP8 (11727945_x_at) / RFU KRTAP5-7 /// NADSYN1 (11734609_at) / Fold change /veh KRTAP5-7 /// NADSYN1 (11734609_at) / RFU RASL12 (11751679_a_at) / Fold change /veh RASL12 (11751679_a_at) / RFU CDKN2B (11736163_a_at) / Fold change /veh CDKN2B (11736163_a_at) / RFU PRF1 (11729649_at) / Fold change /veh PRF1 (11729649_at) / RFU, ZNF638 /// ZNF638-IT1 / Fold change vs veh, ZNF638 /// ZNF638-IT1 / RFU, PANK3 / Fold change vs veh, PANK3 / RFU, SH3YL1 / Fold change vs veh, SH3YL1 / RFU, ZEB2 / Fold change vs veh, ZEB2 / RFU, NRIP1 / Fold change vs veh, NRIP1 / RFU, PTTG1IP / Fold change vs veh, PTTG1IP / RFU, CAPN2 / Fold change vs veh, CAPN2 / RFU, MED14 / Fold change vs veh, MED14 / RFU, SNORA58 / Fold change vs veh, SNORA58 / RFU, C1orf63 / Fold change vs veh, C1orf63 / RFU, LRRFIP1 / Fold change vs veh, LRRFIP1 / RFU, NDUFAF7 / Fold change vs veh, NDUFAF7 / RFU, SLC12A2 / Fold change vs veh, SLC12A2 / RFU, IBTK / Fold change vs veh, IBTK / RFU, ESF1 / Fold change vs veh, ESF1 / Fold change vs veh, TMEM50B / RFU, TAOK1 / Fold change vs veh, TAOK1 / RFU, ACBD3 / Fold change vs veh, ACBD3 / RFU, TMA16 / Fold change vs veh, TMA16 / RFU, RWDD3 / Fold change vs veh, RWDD3 / RFU, BCAT1 / Fold change vs veh, BCAT1 / RFU, EDEM3 / Fold change vs veh, EDEM3 / RFU, TMEM33 / Fold change vs veh, TMEM33 / RFU, WDR75 / Fold change vs veh, WDR75 / RFU, AHCTF1 / Fold change vs veh, AHCTF1 / RFU, TFRC / Fold change vs veh, TFRC / RFU, ZDHHC17 / Fold change vs veh, ZDHHC17 / RFU, NOM1 / Fold change vs veh, NOM1 / RFU, ARL8B / Fold change vs veh, ARL8B / RFU, ZBTB11 / Fold change vs veh, ZBTB11 / RFU, TAMM41 / Fold change vs veh, TAMM41 / RFU, KIAA1704 /// LOC100996395 / Fold change vs veh, KIAA1704 /// LOC100996395 / RFU, ING1 / Fold change vs veh, ING1 / RFU, TRMT61B / Fold change vs veh, TRMT61B / RFU, FUBP3 / Fold change vs veh, FUBP3 / RFU, TP53 / Fold change vs veh, TP53 / RFU, TNKS2 / Fold change vs veh, TNKS2 / RFU, ZFP14 / Fold change vs veh, ZFP14 / RFU, ACTR2 / Fold change vs veh, ACTR2 / RFU, PPP3R1 / Fold change vs veh, PPP3R1 / RFU, PIK3R1 / Fold change vs veh, PIK3R1 / RFU, HNRNPA1 / Fold change vs veh, HNRNPA1 / RFU, RNF170 / Fold change vs veh, RNF170 / RFU, ZNF28 / Fold change vs veh, ZNF28 / RFU, RNGTT / Fold change vs veh, RNGTT / RFU, OGT / Fold change vs veh, OGT / RFU, BRD1 / Fold change vs veh, BRD1 / RFU, MARS / Fold change vs veh, MARS / RFU, ZNF655 / Fold change vs veh, ZNF655 / RFU, FAHD1 / Fold change vs veh, FAHD1 / RFU, BDP1 / Fold change vs veh, BDP1 / RFU, LRRCC1 / Fold change vs veh, LRRCC1 / RFU, ARID1A / Fold change vs veh, ARID1A / RFU, ZNF146 / Fold change vs veh, ZNF146 / RFU, ZNF330 / Fold change vs veh, ZNF330 / RFU, GPN3 / Fold change vs veh, GPN3 / RFU, C9orf123 / Fold change vs veh, C9orf123 / RFU, N4BP2L2 / Fold change vs veh, N4BP2L2 / RFU, ARFIP1 / Fold change vs veh, ARFIP1 / RFU, FAM179B / Fold change vs veh, FAM179B / RFU, BCL10 / Fold change vs veh, BCL10 / RFU, UHRF1BP1L / Fold change vs veh, UHRF1BP1L / RFU, BET1 / Fold change vs veh, BET1 / RFU, CNOT2 / Fold change vs veh, CNOT2 / RFU, ZNF268 / Fold change vs veh, ZNF268 / Fold change vs veh, ZNF507 / RFU, DGCR2 / Fold change vs veh, DGCR2 / RFU, WDSUB1 / Fold change vs veh, WDSUB1 / Fold change vs veh, HSP90B1 /// MIR3652 / RFU, ADSS / Fold change vs veh, ADSS / RFU, GK / Fold change vs veh, GK / RFU, ZNF148 / Fold change vs veh, ZNF148 / RFU, TAF9 / Fold change vs veh, TAF9 / RFU, SLC1A5 / Fold change vs veh, SLC1A5 / RFU, SLMO2 / Fold change vs veh, SLMO2 / RFU, ABCC4 / Fold change vs veh, ABCC4 / RFU, LOC101060439 /// RAP1B / Fold change vs veh, LOC101060439 /// RAP1B / RFU, RFX7 / Fold change vs veh, RFX7 / RFU, GTPBP10 / Fold change vs veh, GTPBP10 / RFU, CNEP1R1 / Fold change vs veh, CNEP1R1 / RFU, BIVM-ERCC5 /// ERCC5 / Fold change vs veh, BIVM-ERCC5 /// ERCC5 / RFU, ILF3 / Fold change vs veh, ILF3 / RFU 11762660_at / Fold change /veh 11762660_at / RFU VCAN (11757783_s_at) / Fold change /veh VCAN (11757783_s_at) / RFU DDX43 (11728927_at) / Fold change /veh DDX43 (11728927_at) / RFU KRT8 (11758188_x_at) / Fold change /veh KRT8 (11758188_x_at) / RFU NKD1 (11759106_at) / Fold change /veh NKD1 (11759106_at) / RFU SRD5A1 (11742802_a_at) / Fold change /veh SRD5A1 (11742802_a_at) / RFU TPSAB1 /// TPSB2 (11721975_s_at) / Fold change /veh TPSAB1 /// TPSB2 (11721975_s_at) / RFU GSTM3 (11746129_a_at) / Fold change /veh GSTM3 (11746129_a_at) / RFU IL23R (11737362_x_at) / Fold change /veh IL23R (11737362_x_at) / RFU TMEM51 (11727254_a_at) / Fold change /veh TMEM51 (11727254_a_at) / RFU PIWIL2 (11732686_x_at) / Fold change /veh PIWIL2 (11732686_x_at) / RFU ORM1 (11744905_x_at) / Fold change /veh ORM1 (11744905_x_at) / RFU CCDC152 (11743942_at) / Fold change /veh CCDC152 (11743942_at) / RFU ECM1 (11717891_a_at) / Fold change /veh ECM1 (11717891_a_at) / RFU IL23R (11748794_a_at) / Fold change /veh IL23R (11748794_a_at) / RFU TNFAIP8L3 (11732012_x_at) / Fold change /veh TNFAIP8L3 (11732012_x_at) / RFU MBOAT4 (11741988_at) / Fold change /veh MBOAT4 (11741988_at) / RFU 11764193_at / Fold change /veh 11764193_at / RFU TMEM53 (11763286_at) / Fold change /veh TMEM53 (11763286_at) / RFU MAGEB2 (11727129_at) / Fold change /veh MAGEB2 (11727129_at) / RFU TMEM200A (11744735_a_at) / Fold change /veh TMEM200A (11744735_a_at) / RFU CCDC152 (11751479_a_at) / Fold change /veh CCDC152 (11751479_a_at) / RFU FAM211A (11726209_a_at) / Fold change /veh FAM211A (11726209_a_at) / RFU RGS16 (11746705_a_at) / Fold change /veh RGS16 (11746705_a_at) / RFU VCAN (11755009_s_at) / Fold change /veh VCAN (11755009_s_at) / RFU RHOB (11743442_s_at) / Fold change /veh RHOB (11743442_s_at) / RFU RGS16 (11720943_a_at) / Fold change /veh RGS16 (11720943_a_at) / RFU RGS16 (11720944_at) / Fold change /veh RGS16 (11720944_at) / RFU, VPS4B / Fold change vs veh, VPS4B / RFU, CREB1 / Fold change vs veh, CREB1 / RFU, DNAJC13 / Fold change vs veh, DNAJC13 / RFU, GNAQ / Fold change vs veh, GNAQ / RFU, CDK5R1 / Fold change vs veh, CDK5R1 / RFU, ZRANB3 / Fold change vs veh, ZRANB3 / RFU, CUL4A / Fold change vs veh, CUL4A / RFU, CCNY / Fold change vs veh, CCNY / RFU, UFL1 / Fold change vs veh, UFL1 / RFU, COG3 / Fold change vs veh, COG3 / RFU, DIAPH2 / Fold change vs veh, DIAPH2 / RFU, SKA2 / Fold change vs veh, SKA2 / RFU, AFF3 / Fold change vs veh, AFF3 / RFU, LMF1 / Fold change vs veh, LMF1 / RFU, IPO11 / Fold change vs veh, IPO11 / RFU, DFFB / Fold change vs veh, DFFB / RFU, FOXP1 / Fold change vs veh, FOXP1 / RFU, CARD8 / Fold change vs veh, CARD8 / RFU, STRN3 / Fold change vs veh, STRN3 / RFU, ADK / Fold change vs veh, ADK / RFU, RASSF2 / Fold change vs veh, RASSF2 / RFU, WIPF1 / Fold change vs veh, WIPF1 / RFU, LARP1B / Fold change vs veh, LARP1B / RFU, RASA1 / Fold change vs veh, RASA1 / RFU, RB1 / Fold change vs veh, RB1 / RFU, PPFIA1 / Fold change vs veh, PPFIA1 / RFU, MAT2A / Fold change vs veh, MAT2A / RFU, CCT5 / Fold change vs veh, CCT5 / RFU, WDR92 / Fold change vs veh, WDR92 / RFU, CUX1 / Fold change vs veh, CUX1 / RFU, TTC7A / Fold change vs veh, TTC7A / RFU, TMEM135 / Fold change vs veh, TMEM135 / RFU, DEPTOR / Fold change vs veh, DEPTOR / RFU, CPM / Fold change vs veh, CPM / RFU, DNAJB6 / Fold change vs veh, DNAJB6 / RFU, CACNA2D3 / Fold change vs veh, CACNA2D3 / RFU, DTX4 / Fold change vs veh, DTX4 / RFU, TFCP2 / Fold change vs veh, TFCP2 / RFU, GMCL1 /// GMCL1P1 / Fold change vs veh, GMCL1 /// GMCL1P1 / RFU, AEBP2 / Fold change vs veh, AEBP2 / RFU, SNHG1 /// SNORD22 /// SNORD25 /// SNORD26 /// SNORD27 /// SNORD28 /// SNORD29 /// SNORD31 / Fold change vs veh, SNHG1 /// SNORD22 /// SNORD25 /// SNORD26 /// SNORD27 /// SNORD28 /// SNORD29 /// SNORD31 / Fold change (Aza/veh), C12orf56 (ProbeSet 11735607_a_at) / Fold change (ACY-1035/veh), C12orf56 (ProbeSet 11735607_a_at) / Fold change (Aza/veh), FGFR1OP (ProbeSet 11751329_s_at) / Fold change (ACY-1035/veh), FGFR1OP (ProbeSet 11751329_s_at) / Fold change (Aza/veh), VPS36 (ProbeSet 11739960_a_at) / Fold change (ACY-1035/veh), VPS36 (ProbeSet 11739960_a_at) / RFU SYPL1 (11715823_x_at) / Fold change /veh SYPL1 (11715823_x_at) / RFU IGFBP7 (11715501_s_at) / Fold change /veh IGFBP7 (11715501_s_at) / RFU REEP3 (11722064_at) / Fold change /veh REEP3 (11722064_at) / RFU IGLL1 (11728026_x_at) / Fold change /veh IGLL1 (11728026_x_at): dose or concentration left out as unconfirmed
Conditions: MV-4-11 cells, 48 hours

Nc1ncn([C@@H]2O[C@H](CO)[C@@H](O)[C@H]2O)c(=O)n1 [azacitidine]
RFU PRRT2 (11749266_a_at): 42.08 RFU
